Measured values reported in US10478511B2, “Therapeutic agent for tauopathy and method for screening thereof” (National Center for Geriatrics and Gerontology, priority 2014, dated 2019).

Tests used:
[1] = tested on: tau proteins; details: tauopathy model mice, Non-Patent Document 3; cited from earlier work
[2] = target: T1, human tau protein (Homo sapiens, UniProt P10636); assay: Quantification of aggregated tau in brain of Drosophila expressing human tau in neurons (elav/Y; hTau/+); format: in vivo; details: hTau/+ flies, 1 mM in food, bred 1 month, versus non-administration group (100%), FIG. 4
T1 construct: expressed in transfected cells; host or cells: transgenic Drosophila (GAL4-UAS; gmr-gal4 compound eyes or elav^C155-gal4 neurons), fly heads
Procedure: Thereafter, the recovered heads were cryopreserved at −80° C. […] The obtained supernatant was recovered in another ultracentrifuge tube.
Using the screening system established in 3 above, the tau protein aggregation-inhibiting effect of rose bengal, which is a fluorone dye, was evaluated. […] Thereafter, the accumulation of aggregated tau in brain was quantified according to the procedures in (2) above.

[3] = tested on: Drosophila expressing human tau in neurons (elav/Y; hTau/+); assay: Motor function (climbing assay, negative gravitaxis) of Drosophila expressing human tau in neurons; format: in vivo; details: 1 mM in food, versus non-administration group, FIG. 5
Procedure: (§1) Male F1 Drosophila one to three days after emergence were bred under an environment consisting of a temperature of 25±3° C., a humidity of 60±10%, and a light-dark cycle of 12 hours. […] The flies were transferred into a vial filled with fresh food once every two weeks.
The motor function of Drosophila of was measured by performing climbing assay and evaluating negative gravitaxis. The climbing assay was carried out under the following conditions. Drosophila was transferred into an empty vial containing no food, and the vial was then hit, so that flies fell to the bottom. Thereafter, the movement of the flies climbing up the wall was captured on video. The flies, which were below the line drawn at the position 3 cm from the bottom 10 seconds after they had fallen to the bottom, were defined as “flies that could not climb”, and flies, which were above the aforementioned line, were defined as “flies that could climb”. The number of flies of each type was counted. The total number of flies in the vial was set at 100%, and the percentage of the flies that could climb was calculated.

[4] = tested on: wild-type Drosophila; assay: Survival rate of wild-type Drosophila; details: wild-type flies, 1 mM in food, versus non-administration group, FIG. 7
Procedure: as §1
Drosophila were bred under the conditions described in (1) above, and the number of surviving flies was counted every three days, and the survival rate was then calculated.
As a control, the Drosophila in the non-administration group was used.

[5] = tested on: Drosophila expressing human tau in mushroom body neurons (mb/Y; hTau/+); assay: Olfactory memory (discrimination learning test with odor and electric shock) of Drosophila expressing human tau in mushroom body neurons; format: in vivo; details: hTau/+ flies, administered over 1 week, versus non-administration, FIG. 9
Procedure: as §1

[6] = tested on: wild-type Drosophila; details: in vivo
Procedure: as §1

T1 sequence (P10636 1-441 isoform P10636-8): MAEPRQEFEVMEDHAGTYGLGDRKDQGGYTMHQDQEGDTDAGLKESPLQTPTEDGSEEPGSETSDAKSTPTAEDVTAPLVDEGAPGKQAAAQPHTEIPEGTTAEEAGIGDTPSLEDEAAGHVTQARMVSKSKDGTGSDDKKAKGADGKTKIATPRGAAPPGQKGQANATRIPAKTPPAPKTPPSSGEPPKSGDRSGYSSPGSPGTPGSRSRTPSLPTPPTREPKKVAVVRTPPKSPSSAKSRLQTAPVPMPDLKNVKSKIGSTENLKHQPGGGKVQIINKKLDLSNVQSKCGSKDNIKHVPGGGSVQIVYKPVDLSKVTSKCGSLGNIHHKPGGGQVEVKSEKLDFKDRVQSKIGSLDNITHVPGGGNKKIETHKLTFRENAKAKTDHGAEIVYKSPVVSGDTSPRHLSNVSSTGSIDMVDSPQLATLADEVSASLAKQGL

## O=C1NC(=O)C(=O)C(=O)N1 [alloxan]
[1]
  accumulation of tau proteins in the brains: reduced

## CN(C)c1ccc2nc3ccc(=[N+](C)C)cc-3sc2c1 [methylene blue]
[2]
  accumulated amount of aggregated tau in brain: reduction
[3]
  motor function (percentage of flies that could climb): recovered
[4]
  survival rate: significantly reduced

## O=C([O-])c1c(Cl)c(Cl)c(Cl)c(Cl)c1-c1c2cc(I)c(=O)c(I)c-2oc2c(I)c([O-])c(I)cc12.[Na+].[Na+] [rose bengal]
[2]
  accumulated amount of aggregated tau in brain: reduction
[3]
  motor function (percentage of flies that could climb): recovered
[5]
  olfactory memory: significantly improved
[6]
  olfactory memory: no significant change
